What all share (assay type): cell-based
In assay [1] the target is T1, human TLR7 (Homo sapiens, UniProt Q9NYK1).
T1 construct: expressed in transfected cells; host or cells: HEK cell line (HEK293, as in the primary assay)
T1 sequence (Q9NYK1 27-1049): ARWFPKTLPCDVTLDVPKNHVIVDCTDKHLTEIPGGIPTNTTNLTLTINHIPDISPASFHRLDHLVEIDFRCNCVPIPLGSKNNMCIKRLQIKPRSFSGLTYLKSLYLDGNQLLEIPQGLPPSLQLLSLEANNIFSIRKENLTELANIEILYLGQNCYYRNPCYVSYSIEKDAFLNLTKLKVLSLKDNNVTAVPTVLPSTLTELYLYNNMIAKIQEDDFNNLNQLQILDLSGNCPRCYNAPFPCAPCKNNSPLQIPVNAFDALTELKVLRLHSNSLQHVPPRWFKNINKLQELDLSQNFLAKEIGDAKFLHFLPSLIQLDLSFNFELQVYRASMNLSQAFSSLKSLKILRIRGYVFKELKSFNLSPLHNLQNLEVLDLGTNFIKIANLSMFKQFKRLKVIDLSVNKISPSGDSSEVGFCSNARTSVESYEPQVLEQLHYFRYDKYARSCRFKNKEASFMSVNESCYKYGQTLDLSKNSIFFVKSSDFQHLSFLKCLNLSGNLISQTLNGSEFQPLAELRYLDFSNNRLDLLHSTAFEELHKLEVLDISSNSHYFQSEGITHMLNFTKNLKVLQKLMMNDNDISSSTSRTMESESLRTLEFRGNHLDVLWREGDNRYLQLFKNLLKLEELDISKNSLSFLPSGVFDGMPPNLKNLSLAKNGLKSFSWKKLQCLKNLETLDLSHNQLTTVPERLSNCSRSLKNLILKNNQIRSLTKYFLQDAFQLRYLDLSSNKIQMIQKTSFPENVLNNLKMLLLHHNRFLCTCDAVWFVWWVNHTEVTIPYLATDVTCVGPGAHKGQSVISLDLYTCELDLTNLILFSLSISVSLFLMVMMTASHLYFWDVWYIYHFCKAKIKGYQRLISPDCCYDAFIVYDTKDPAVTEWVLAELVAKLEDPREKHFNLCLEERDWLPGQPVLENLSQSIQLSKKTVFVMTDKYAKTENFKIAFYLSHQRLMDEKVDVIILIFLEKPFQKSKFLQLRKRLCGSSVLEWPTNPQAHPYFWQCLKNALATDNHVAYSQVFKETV
As to the kind of experiment: HEK/TLR7 activation assay (R848 stimulation). Particulars: HEK cells transfected with human TLR7. How it is done: (1) HEK/TLR7Activation Assay: The same compounds were tested in the same way as the primary assay with the following differences. The plasmid used to transfect the HEK cell line encoded for human TLR7 instead of TLR9, and R848 was used to stimulate the cells instead of Oligo CpG 2006.

In assay [2] the test system is mouse spleen IL-6 production in response to Oligo CpG 1668. The experiment in a line: Splenocyte CpG 1668 assay (IL-6 ELISA). The conditions noted are these: mouse splenocytes, Oligo CpG 1668, 72 hrs. The procedure: (2) Splenocyte CpG 1668 Assay: Some of the compounds tested in the primary assay were also assayed for suppression of mouse spleen IL-6 production in response to stimulation with Oligo CpG 1668, a synthetic phosphorothioate oligonucleotide (Krieg et al. Nature. 374:546-9 (1995)), with nucleotide sequence [NT] (SEQ ID NO:2). Each compound was added to dissociated splenocytes before addition of stimulatory oligonucleotide. Cells were stimulated in culture for 72 hrs and the supernatant was removed for ELISA analysis of IL-6 level. Here the IC50 is defined as the concentration of compound that suppresses cytokine production to 50% of that observed in the absence of compound, i.e., full stimulation.

Assay [3] has as its system dissociated mouse splenocytes. As to the kind of experiment: Spleen CellTiter-Glo viability assay. The conditions noted are these: Splenocyte, 72 hours, viability (ATP). How it is done:
(3) Spleen CT Glo Assay: To determine if compounds had adverse effects on living cells, dissociated mouse splenocytes were incubated with some of the compounds for 72 hours. At the end of the incubation Celliter-Glo™ reagent (Promega Corporation, Madison, Wis.) was added and luminescence was read per manufacturer's instructions. This reagent measures ATP as an indication of cell metabolism. Dead cells will not produce signal. IC50 is defined as the concentration of compound that suppresses viability to 50% of that observed in the absence of compound. The few compounds that measurably affected viability did so at concentrations far above those that affected cytokine release in response to TLR9 stimulation.
(ATP-based viability assays read luminescence as a measure of living cells.)

Bounds are passed on as bounds.

A word on the IC50: it is the concentration at which inhibition is half-maximal. Read a low IC50 as greater potency.

As to `CN1CCCN(CCCOc2ccc(-c3nc4ccc(OCCCN5CCCN(C)CC5)cc4o3)cc2)CC1` [Compound 14], the IC50 in assay [1] is 620 nM; in assay [2], 4 nM; in assay [3], more than 10000 nM.
For `c1cc(-c2nc3ccc(OCCCN4CCCC4)cc3o2)ccc1OCCCN1CCCC1` [Compound 23], the IC50 is 1550 nM in assay [1], 18 nM in assay [2] and more than 10000 nM in assay [3].
In the same order, the values of `c1cc(-c2nc3ccc(OCCCN4CCC(N5CCCC5)CC4)cc3o2)ccc1OCCCN1CCC(N2CCCC2)CC1` [Compound 20] are 1820 nM, 6 nM and more than 10000 nM.
For the compound `CN(C)CCN(C)CCCOc1ccc(-c2nc3ccc(OCCCN(C)CCN(C)C)cc3o2)cc1` [Compound 22], the half-inhibitory concentration (IC50) was found to be 500 nM in assay [1], 10 nM in assay [2] and 7110 nM in assay [3].
For `c1cc(-c2nc3ccc(OCCCN4CCCCC4)cc3o2)ccc1OCCCN1CCCCC1` [Compound 30], in that order: 1140 nM, 25 nM and more than 10000 nM.
In the same order, the values of `CN1CCN(c2ccc(CNCCCOc3ccc(-c4nc5ccc(OCCCNCc6ccc(N7CCN(C)CC7)cc6)cc5o4)cc3)cc2)CC1` [Compound 11] are 470 nM, 2 nM and 10000 nM.
For `CN(C)CCCN(C)CCCOc1ccc(-c2nc3ccc(OCCCN(C)CCCN(C)C)cc3o2)cc1` [Compound 27], in that order: 980 nM, 4 nM and 8960 nM.
Take `CN(C)CCCOc1ccc(-c2nc3ccc(OCCCN(C)C)cc3o2)cc1` [Compound 2]: the IC50 in assay [1] is 2210 nM; in assay [2] it was 48 nM; in assay [3], more than 10000 nM.
With `CCN(CC)CCN(C)CCCOc1ccc(-c2nc3ccc(OCCCN(C)CCN(CC)CC)cc3o2)cc1` [Compound 31], the IC50 in assay [1] was 440 nM; in assay [2] it was 6 nM; in assay [3], more than 10000 nM.
Take `CCN(CC)CCNCCCOc1ccc(-c2nc3ccc(OCCCNCCN(CC)CC)cc3o2)cc1` [Compound 12]: the values for the concentration for half-maximal inhibition (IC50) in assay [1], in assay [2] and in assay [3] were 780 nM, 4 nM and more than 10000 nM, respectively.
With `CN(C)[C@@H]1CCN(CCCOc2ccc(-c3nc4ccc(OCCCN5CC[C@@H](N(C)C)C5)cc4o3)cc2)C1` [Compound 16], the IC50 was 430 nM in assay [1], 8 nM in assay [2] and more than 10000 nM in assay [3].
On to `c1cc(CN2CCOCC2)ccc1CNCCCOc1ccc(-c2nc3ccc(OCCCNCc4ccc(CN5CCOCC5)cc4)cc3o2)cc1` [Compound 13], for which the IC50 in assay [1] turned out to be 460 nM; in assay [2], 3 nM; in assay [3] it was 7070 nM.

The record behind these values is patent US8354400B2, “Benzoxazole compounds and methods of use” (Eisai R&D Co., Ltd., priority 2008, dated 2013).
